From patent US10301304B2, “Selective inhibitor of phosphatidylinositol 3-kinase-gamma” (VERTEX PHARMACEUTICALS INCORPORATED, priority 2013, dated 2019)
Values belong to the compound of their own block, whether it stands above or below them.

Tests used:
[1] = Intravenous bolus pharmacokinetics; assay type: in vivo, Rat; settings: rat, plasma, Intravenous bolus, 0.5 mg/kg nominal dose; for AUC: iv, 0.5 mg/kg, read-out: Rat IV AUC; for clearance: read-out: Rat IV CL
Source text: Following intravenous administration of a single bolus dose, Compound 1 had low systemic clearance and a long half-life in all species tested. […] The volume of distribution was greater than the total body water, indicating distribution of Compound 1 to tissues.

[2] = Oral pharmacokinetics / bioavailability; assay type: in vivo, Rat; settings: rat, in vivo, Oral gavage, 3 mg/kg nominal dose, vehicle 0.2%MC/1%SLS; for AUC: read-out: Rat PO AUC; for Cmax: read-out: Rat PO Cmax
Source text: The bioavailability in monkey (greater than 100%) may be explained by the tenfold difference between the IV and oral doses. Compound 1 was rapidly absorbed in all species, with maximum systemic concentration observed within approximately one to three hours of dosing.

[3] = system: collagen-induced arthritis (CIA); experiment: therapeutic mouse collagen-induced arthritis (CIA) model; assay type: in vivo; parameters: Histopathology Summed Score, Knees / Therapeutic Paw Score AUC / Histopathology Summed Score, Six Joints / Histopathology Summed Score, Paws: scale not given here; settings: Fostamatinib 30 mg/kg BID
Experimental: Compound 1 was tested in the therapeutic mouse collagen-induced arthritis (CIA) model at 2.5 mg/kg BID (5 mg/kg/day), 5 mg/kg BID (10 mg/kg/day) or 10 mg/kg BID (20 mg/kg/day). Fostamatinib, a Syk small molecule inhibitor used as a reference standard, was dosed orally at 30 mg/kg BID (60 mg/kg/day). Compounds were dosed for 10 days in a 12/12-hour BID dosing regimen until the end of the study. Compound 1 was formulated in 0.2% MC, 1% SLS. Dosing volume was 10 mL/kg. Terminal plasma samples were collected at 2, 4 and 12 hours post last dose. All four paws and both knees were collected and processed for histopathology.

[4] = system: CYP1A2; experiment: CYP1A2 Induction in Human Hepatocytes; assay type: in vitro ADME; settings: 50 μM Omeprazole
Experimental: CYP activity was determined by monitoring metabolite formation of specific CYP probe substrates (phenacetin for CYP1A2 and testosterone for CYP3A4) using LC-MS/MS. CYP messenger ribonucleic acid (mRNA) was analyzed by RT-PCR to confirm CYP induction potential.

SMILES: CCOc1cncc(-c2cc(C)c3c(n2)C(C)(C)N(c2cnn(CC(F)F)c2)C3=O)c1 [B, reference compound]
AUC [1]: 330 ng·h/mL | clearance [1]: 22 mL/min/kg | AUC [2]: 600 ng·h/mL | Cmax [2]: 120 ng/mL

SMILES: Cc1cc(-c2cncc(OCC(F)F)c2)nc2c1C(=O)N(c1cnn(CC(F)F)c1)C2(C)C [C, reference compound]
AUC [1]: 590 ng·h/mL | clearance [1]: 11 mL/min/kg | AUC [2]: 3000 ng·h/mL | Cmax [2]: 200 ng/mL

SMILES: COc1cc(Nc2ncc(F)c(Nc3ccc4c(n3)N(COP(=O)(O)O)C(=O)C(C)(C)O4)n2)cc(OC)c1OC [Fostamatinib, reference compound]
clinical arthritis scores, therapeutic paws (FIG. 2), significantly reduced [3]: not | reduction of arthritis scores AUC, prophylactic paws only [3]: 32% | reduction of clinical arthritis scores AUC vs vehicle, all paws [3]: 25% | All Paw Score AUC ([3]; 10 days): *23.61 | Histopathology Summed Score, Knees ([3]; 10 days): 8.90 | Histopathology Summed Score, Paws ([3]; 10 days): 10.25 | Histopathology Summed Score, Six Joints ([3]; 10 days): 9.80 | Prophylactic Paw Score AUC ([3]; 10 days): *48.30 | Therapeutic Paw Score AUC ([3]; 10 days): 46.15 | Arthritis scores measured daily, all paws (FIG. 1) ([3]; *d2-11, vs vehicle): significantly reduced toward normal | clinical arthritis scores, prophylactic paws (FIG. 3) ([3]; *d5-9): significantly reduced

The next lines start with the values.

AUC [1]: 220 ng·h/mL | clearance [1]: 22 mL/min/kg | AUC [2]: 300 ng·h/mL | Cmax [2]: 60 ng/mL
SMILES: COc1cncc(-c2cc(C)c3c(n2)C(C)(C)N(c2cnn(CC(F)F)c2)C3=O)c1 [Compound A, reference compound]

AUC [1]: 1200 ng·h/mL | clearance [1]: 7 mL/min/kg | AUC [2]: 9000 ng·h/mL | Cmax [2]: 500 ng/mL
SMILES: Cc1cc(-c2cncc(OCC(F)(F)F)c2)nc2c1C(=O)N(c1cnn(CC(F)F)c1)C2(C)C [D, reference compound]

CYP1A2 mRNA message ([4]; lot 8123): 118.0 fold change | Phenacetin O-Dealkylation ([4]; lot 8123): 25.7 fold change | CYP1A2 mRNA message ([4]; lot LMP): 71.5 fold change | Phenacetin O-Dealkylation ([4]; lot LMP): 36.3 fold change | CYP1A2 mRNA message ([4]; lot YOW): 83.6 fold change | Phenacetin O-Dealkylation ([4]; lot YOW): 17.9 fold change
SMILES: COc1ccc2[nH]c([S+]([O-])Cc3ncc(C)c(OC)c3C)nc2c1 (stereo not drawn) [Omeprazole, reference compound]
